Test results published in patent US20250179029A1, “DEUTERATED RETINOIDAL COMPOUNDS AND SYNTHESIS AND USES THEREOF” (UNIVERSITY OF MARYLAND, BALTIMORE, priority 2022, published 2025).
Blank lines part the entries; values can stand above or below the molecule they belong to.

What was measured:
MCF7 = assay: MTT antiproliferative assay, MCF7 non-TNBC cells; type: cell-based; conditions: mean of three independent experiments
Method: (§1) Compounds 2, 4, 8 and 9, as well as paclitaxel (PTX) were evaluated over a range of concentrations to examine their antiproliferative activities against two non-TNBC cell lines, MCF7 and SKBR3using the well-established 3-(4,5-dimethylthiazolyl-2)-2,5-diphenyl tetrazolium bromide (MTT) assay.^48,55,56 The parent non-deuterated VNLG-152R (Compound 2) was used as the positive control.
(§2) As presented in Table 1 below, the GI50 values of the deuterated Compounds 4, 8 and 9 against the MCF7 cell are identical to the GI50 value of the parent protio VNLG-152R (Compound 2). In contrast, the SKBR3 cell appears to be more sensitive to the deuterated compounds compared to the parent non-deuterated VNLG-152R (Compound 2). The reason for this difference is not understood at this time. The applicant hypothesizes that the enhanced diffusion of these deuterated molecules across the cell membrane of this cell line may result in enhanced intracellular concentrations and inhibition of its proliferation. Each data point is a mean of replicates from three independent experiments.

[1] = system: Mnk1, peIF4E, eIF4E, cyclin D1, Bcl-2, Bax in MDA-MB-231 cells; assay: Western blotting of Mnk1 and downstream targets in MDA-MB-231 cells; type: cell-based, human; conditions: MDA-MB-231, 5, 10 and 20 µM, 24 h, Western blot
Text: The applicant had previously reported that the antiproliferative effects of Compound 1 and our other Mnk1/2 degraders in breast cancer cells was due to degradation of Mnk1/2 with consequent depletion of peIF4E and modulation of the downstream molecular targets.^48,55,56 Thus, the deuterated analogs were further examined for their effects on the degradation of Mnk1 and the other related downstream molecular targets in both MDA-MB-231 and MDA-MB-468 TNBC cells by Western blotting analysis.
The human breast cancer cell lines, MDA-MB-231, MDA-MB-468 were procured from ATCC (Manassas, VA) and cultured in the recommended media supplemented with 10% heat-inactivated standard fetal bovine serum (FBS, GIBCO) and 1% penicillin-streptomycin (10,000 U/ml, Life Technologies) at 37° C. and 5% CO2. Primary antibodies against Mnk1, eIF4E, p-eIF4E, Cyclin D1, BCL2, BAX, β-actin, and secondary RP-conjugated anti-rabbit used in the study were procured from Cell Signaling Technology, USA. Cells were lysed with radioimmunoprecipitation assay (RIPA) buffer supplemented with 1× protease inhibitors (Roche, Indianapolis, IN, USA), phosphatase inhibitors (Thermo Scientific, Waltham, MA, USA), 1 mmol/L EDTA and 1 mmol/L PMSF (Sigma) and immunoblotting analyses were performed as described previously.^48,64
The non-deuterated VNLG-152R (Compound 2) and the vehicle, DMSO were used as positive and negative controls, respectively. Equal protein concentrations from breast cancer cells treated with the compounds at different concentration (5, 10 and 20 µM) for 24 h were separated by SDS-PAGE and Western blots probed with the respective protein antibodies. Vehicle treated cells were included as a control, and all blots were reprobed for R-actin for loading control.

[2] = Plasma pharmacokinetics after single oral dose in female CD-1 mice; type: in vivo; conditions: for Cmax: mean of three mice
Method: The PK study was performed by the Certified Research Organization (CRO), Aragen Life Sciences Private Limited (Aragen), Hyderabad, India. All procedures of the present study were in accordance with the guidelines provided by the Committee for the Purpose of Control and Supervision of Experiments on Animals (CPCSEA) as published in The Gazette of India, Jan. 7, 2010. CPCSEA renewal number for institute is 1125/PO/Rc/S/CPCSEA on 13Feb. 2014. Institutional Animal Ethics Committee (IAEC) approval has been taken to initiate the study (IAEC Approval Number: B-011A). The details are presented in the Supplementary Materials.
To minimize the number of mice used in the PK study using a validated LC/MS/MS analysis, both individual (discrete) (set #1: Compound 5, EM=463.2937 and set #2: […], EM=463.2937) and cassette (set #3: Compounds 2, 3, and 7; EMs=459.2686, 462.2874 and 466.3125, respectively, and set #4: Compounds 4, 8, and 9; EMs=460.2749, 464.2999 and 467.3188, respectively) dosing were used.^59,66 The four sets studied were dictated by the exact molecular masses of the compounds as indicated above and in FIG. 3.
The plasma PK profiles were obtained after single oral (PO) dosing of the compounds in mice.
In Table 2, data are presented as the mean of values obtained from three female CD-1 mice. Cmax is the maximum observed plasma concentration. Tmax is the time to maximum concentration. T1/2 is the elimination half-life. AUC represents AUC (0-∞), which is the area under the concentration-time curve from time of dosing extrapolated to infinity. MRT refers to mean residence time. The number in parentheses indicate the rank order from best (1) to worst (8).

[3] = system: androgen-sensitive and castration-resistant human prostate cancer cells; conditions: androgen-sensitive and castration-resistant human prostate cancer cells in vitro; cited from earlier work
[4] = system: MDA-MB-468 tumor xenograft; assay: Anti-tumor activity in MDA-MB-468 xenograft mouse model; type: in vivo; conditions: 20 mg/kg, PO, 5 days/week, 16 days
Method: (§3) FIGS. 13A-13D show the anti-tumor activity of VNLG-152R, Compound 4, Compound 8, and Compound 9 in xenograft mouse models. […] In FIGS. 13B and 13D, *=p<0.0001.
(§4) After confirming the improved pharmacokinetic parameters of deuterated compounds 4, 8, and 9, the anti-tumor activity of these compounds was tested in xenograft models of MDA-MB-231 and MDA-MB-468. In both models, the mice for each group were treated with either vehicle (control) or the compounds, each at 20 mg/kg, PO, 5 days/week.

[5] = system: Mnk1, peIF4E, cyclin D1 in MDA-MB-231 cells; assay: Western blotting of Mnk1 and downstream targets in MDA-MB-231 cells (mechanism study); type: cell-based, human; conditions: MDA-MB-231, 24 hours, FIG. 14B
Method: FIGS. 14A and 14B show the in vitro effects of VNLG-152R on synoviolin 1 (SYVN1) and other targets in MDA-MB-231 cells.
After confirming the anti-tumor effect of VNLG-152R, the molecular mechanism of VNLG-152R was studied, in order to help identify potential new molecular targets for treatment. Using an established procedure^70,71, a label-free proteomics analysis was conducted. MDA-MB-231 cells were treated for 24 hours with VNLG-152R in the concentrations indicated in FIGS. 14A and 14B, followed by Western blotting of whole cell lysates.

SKBR3 = assay: MTT antiproliferative assay, SKBR3 non-TNBC cells; type: cell-based
Method: as §1, §2

[6] = system: MDA-MB-231 tumor xenograft; assay: Anti-tumor activity in MDA-MB-231 xenograft mouse model; type: in vivo; conditions: 20 mg/kg, PO, 5 days/week, 16 days
Method: as §3, §4

[7] = single p.o. dose 10 mg/kg, female CD-1 mice, plasma

GI50 (MCF7): 350 ± 110 nM | clearance from systemic circulation (plasma concentration versus time profile) ([2]; single PO dosing, mice, FIGS. 12A-12C): could not be detected after 8 hours | AUC (0-∞) [2, 7]: 22764.75 ng·h/mL | MRT (mean residence time) [2, 7]: 3.02 h | T1/2 (elimination half-life) [2, 7]: 3.61 h | Tmax [2, 7]: 0.83 h | Cmax [2, 7]: 4651.88 ng/mL | GI50 (SKBR3; mean of three independent experiments): 260 ± 120 nM
Structure (SMILES): CC1=C(/C=C/C(C)=C/C=C/C(C)=C/C(=O)Nc2ccc(F)cc2)C(C)(C)CCC1n1ccnc1 (racemic) [Compound 2, (±) 4-Imidazolyl-4(H)-(4′-fluoro(phenyl))-(E)-retinamide]
expression of Mnk1 [1]: significantly and dose-dependently reduced | expression of peIF4E [1]: significantly and dose-dependently reduced | expression of total eIF4E [1]: without noticeable effects | anti-proliferative and anti-metastatic activities [3]: potent | reduction of tumor growth [4]: 81% | Mnk1 level [5]: dose-dependent Mnk1 depletion | cyclin D1 level [5]: suppression | peIF4E level [5]: suppression | reduction of tumor growth [6]: 87%

GI50 (MCF7; Homo sapiens): 220 ± 130 nM | AUC(0-inf) ([2]; mouse, po, single p.o. dose 10 mg/kg, female CD-1 mice, plasma): 22600 ng·h/mL | MRT (mean residence time) [2, 7]: 8.92 h | T1/2 (elimination half-life) [2, 7]: 10.28 h | Tmax [2, 7]: 2.67 h | Cmax [2, 7]: 1615.81 ng/mL | GI50 (SKBR3; Homo sapiens, SK-BR-3, mean of three independent experiments): 100 ± 140 nM
Structure (SMILES): [2H]c1nc([2H])n(C2([2H])CCC(C)(C)C(/C=C/C(C)=C/C=C/C(C)=C/C(=O)Nc3c([2H])c([2H])c(F)c([2H])c3[2H])=C2C)c1[2H] (racemic) [Compound 9, (±) 4-(Imidazolyl-2″3″5″-D3)-4-(D)-(4′-fluoro(phenyl-2′3′5′6′-D4))-(E)-retinamide]
tumor regression [4]: 37% | tumor regression [6]: 67%

Structure (SMILES): CC1=C(/C=C/C(C)=C/C=C/C(C)=C/C(=O)Nc2ccccc2O)C(C)(C)CCC1n1ccnc1 (stereo not shown) [VNLG-147, (2E,4E,6E,8E)-N-(2-hydroxyphenyl)-9-(3-imidazolyl-2,6,6-trimethylcyclohex-1-enyl)-3,7-dimethylnona-2,4,6,8-tetraenamide]
anti-proliferative and anti-metastatic activities [3]: potent

Structure (SMILES): CC1=C(/C=C/C(C)=C/C=C/C(C)=C/C(=O)Nc2ccccc2)C(C)(C)CCC1n1ccnc1 (stereo not shown) [VNLG-153, (2E,4E,6E,8E)-9-(3-imidazolyl-2,6,6-trimethylcyclohex-1-enyl)-3,7-dimethyl-N-phenylnona-2,4,6,8-tetraenamide]
anti-proliferative and anti-metastatic activities [3]: potent
